We go through one molecule from US12630497B2, “Compound having malate dehydrogenase inhibitory activity and pharmaceutical composition for preventing or treating cancer comprising same as active ingredient” (DONGGUK UNIVERSITY INDUSTRY-ACADEMIC COOPERATION FOUNDATION, priority 2017, dated 2026).

One assay concerns HIF-1α. In words: HIF-1α inhibitory activity, immunoblot in hypoxic HCT-116 cells. The settings on record: HCT-116, hypoxia (1% oxygen) 6 hours; 2.5, 5 and 10 μM. The class given is cell-based. The method, then:
Hypoxia-inducible factor-1α (HIF-1α) is a factor that affects radioresistance and chemoresistance in solid cancer and malignancy of cancer. More specifically, an HCT-116 colorectal cancer cell line was suspended in DMEM containing 5% fetal bovine serum (FBS), transferred to a 6-well plate (5×10^5 cells/well), and cultured in a 37 D cell incubator maintaining 5% carbon dioxide for 24 hours. To induce the accumulation of HIF-1a protein by hypoxia, the cells were cultured under 1% oxygen, 94% nitrogen and 5% carbon dioxide conditions for 6 hours. The HCT-116 cells were disrupted using a radioimmunoprecipitation assay buffer (RIPA buffer, Millipore), thereby obtaining a cell extract, and 10 μg each of the cell extract was isolated through SDS-PAGE, transferred to a polyvinylidene fluoride (PVDF) membrane, followed by sequentially binding of a HIF-1α antibody (BD Biosciences), a HIF-1β antibody (BD Biosciences), a β-Actin (SantaCruz) and horseradish peroxidase (HRP)-labeled secondary antibody (SantaCruz) to confirm protein expression.
Background: A western blot detects proteins with antibodies after separation by electrophoresis.

A further assay has as its target T1, MDH1 (Homo sapiens, UniProt P40925).
T1 sequence (P40925 1-334): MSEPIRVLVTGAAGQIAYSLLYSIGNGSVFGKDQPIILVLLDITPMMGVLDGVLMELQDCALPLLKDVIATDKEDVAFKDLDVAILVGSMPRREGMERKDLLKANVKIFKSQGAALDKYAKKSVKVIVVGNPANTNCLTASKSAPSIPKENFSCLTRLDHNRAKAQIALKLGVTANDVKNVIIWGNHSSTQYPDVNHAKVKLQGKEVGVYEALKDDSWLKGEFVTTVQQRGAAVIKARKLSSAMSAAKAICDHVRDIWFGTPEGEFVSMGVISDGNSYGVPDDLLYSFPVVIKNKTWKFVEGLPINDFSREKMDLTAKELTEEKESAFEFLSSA
As to the kind of experiment: MDH1 enzyme kinetics with varied NADH (Lineweaver-Buck plot).

Molecules are shown by their SMILES.

Take `COC(=O)c1cccc(NC(=O)CCOc2ccc(C(C)(C)CC(C)(C)C)cc2)c1` [Compound 9-2, Methyl 3-(3-(4-(2,4,4-trimethylpentan-2-yl)phenoxy)propanamido)benzoate]: the HIF-1α protein accumulation result in the assay with HIF-1α was “inhibits HIF-1α protein accumulation in a concentration-dependent manner”. The MDH inhibiting mechanism entry at MDH1 (NADH 60-300 μM, 600 μM oxaloacetate) is “competitively inhibiting MDH”. Moreover, the “maximum velocity (Vmax)” value at MDH1 (as NADH concentration changes) is recorded as “does not change”.
